Assay results taken from paper PMC11329753, “Human mitochondrial carriers of the SLC25 family function as monomers exchanging substrates with a ping-pong kinetic mechanism” (The EMBO Journal, 2024).

Tests used:
[1] = molecular target: T1, human aspartate/glutamate carrier 2 (AGC2, SLC25A13) (Homo sapiens, UniProt Q9UJS0); experiment: […]-aspartate uptake into proteoliposomes, homo-exchange, Michaelis-Menten fit; assay type: biochemical; settings: labelled compound; internal aspartate 0.10-1.00 mM, external 1.5-25 μM; 20 mM HEPES pH 7.4, 50 mM NaCl, 1 mM CaCl2
T1 construct: N-terminal His8 tag with TEV site, tag removed by TEV cleavage; codon-optimized, expressed in Saccharomyces cerevisiae W303.1B mitochondria; purified in LMNG/cardiolipin; 74 kDa protomer, homodimer via N-terminal domains
T1 sequence (Q9UJS0 2-675): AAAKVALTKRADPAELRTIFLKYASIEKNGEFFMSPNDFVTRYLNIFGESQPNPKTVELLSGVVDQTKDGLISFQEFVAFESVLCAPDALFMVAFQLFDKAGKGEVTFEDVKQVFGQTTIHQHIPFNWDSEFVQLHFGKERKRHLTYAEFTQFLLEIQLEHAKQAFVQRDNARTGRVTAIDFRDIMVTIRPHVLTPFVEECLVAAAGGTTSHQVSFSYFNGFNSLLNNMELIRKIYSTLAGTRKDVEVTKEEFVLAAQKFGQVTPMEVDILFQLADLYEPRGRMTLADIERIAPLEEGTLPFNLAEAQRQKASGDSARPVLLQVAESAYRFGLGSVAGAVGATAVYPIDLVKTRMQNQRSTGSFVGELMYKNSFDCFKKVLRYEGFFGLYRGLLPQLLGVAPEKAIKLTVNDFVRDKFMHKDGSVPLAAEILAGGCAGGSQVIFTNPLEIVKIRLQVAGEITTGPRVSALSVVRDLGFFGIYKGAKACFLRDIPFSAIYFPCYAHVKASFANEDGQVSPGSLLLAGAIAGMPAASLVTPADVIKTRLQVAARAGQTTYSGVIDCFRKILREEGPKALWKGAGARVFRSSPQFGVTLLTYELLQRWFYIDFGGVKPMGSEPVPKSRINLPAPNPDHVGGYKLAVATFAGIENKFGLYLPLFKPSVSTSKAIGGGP

[2] = molecular target: T1, human aspartate/glutamate carrier 2 (AGC2, SLC25A13); experiment: nanoDSF thermal shift; assay type: binding; settings: 10 mM aspartate; 20 mM HEPES pH 7.0, 50 mM NaCl, cardiolipin/LMNG; apo Tm 55.4 °C
[3] = molecular target: human citrate carrier (CIC, SLC25A1) (Homo sapiens, UniProt P53007); settings: labelled compound; internal citrate 0.10-1.00 mM, external 1.0-25 μM; 20 mM HEPES pH 7.0, 50 mM NaCl, 5 mM MgCl2
human citrate carrier (CIC, SLC25A1), sequence (P53007 13-311): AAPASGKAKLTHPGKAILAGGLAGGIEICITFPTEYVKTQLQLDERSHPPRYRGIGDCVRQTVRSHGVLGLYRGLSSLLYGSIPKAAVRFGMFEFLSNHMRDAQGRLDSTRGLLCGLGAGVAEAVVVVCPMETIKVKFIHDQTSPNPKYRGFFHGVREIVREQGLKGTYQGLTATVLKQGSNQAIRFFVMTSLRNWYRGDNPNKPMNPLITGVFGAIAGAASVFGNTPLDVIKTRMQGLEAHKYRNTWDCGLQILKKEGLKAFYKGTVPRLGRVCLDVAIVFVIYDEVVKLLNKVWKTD

[4] = molecular target: T2, human oxoglutarate carrier (OGC, SLC25A11) (Homo sapiens, UniProt Q02978); experiment: […]-malate uptake into proteoliposomes, homo-exchange, Michaelis-Menten fit; assay type: biochemical; settings: labelled compound; internal malate 0.10-1.00 mM, external 0.5-20 μM; 20 mM HEPES pH 7.0, 50 mM NaCl, 5 mM MgCl2
T2 construct: residues 2-13 deleted; N-terminal His8 tag with factor Xa site, tag removed by on-column Xa cleavage; codon-optimized, expressed in Saccharomyces cerevisiae W303.1B mitochondria; purified in LMNG/cardiolipin; 33,477 Da; monomer
T2 sequence (Q02978 14-314): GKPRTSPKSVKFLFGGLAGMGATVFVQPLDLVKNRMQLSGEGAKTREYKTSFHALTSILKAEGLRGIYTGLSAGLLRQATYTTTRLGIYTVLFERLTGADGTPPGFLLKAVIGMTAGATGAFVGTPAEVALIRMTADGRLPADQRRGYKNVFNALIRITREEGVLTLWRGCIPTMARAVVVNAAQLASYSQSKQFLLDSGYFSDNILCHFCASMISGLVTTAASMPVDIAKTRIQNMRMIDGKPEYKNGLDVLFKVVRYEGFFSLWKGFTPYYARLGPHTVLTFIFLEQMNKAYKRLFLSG

[5] = molecular target: T2, human oxoglutarate carrier (OGC, SLC25A11); experiment: nanoDSF thermal shift; assay type: binding; settings: 10 mM malate; 20 mM HEPES pH 7.0, 50 mM NaCl, cardiolipin/LMNG; apo Tm 51.0 °C
[6] = molecular target: T3, human dicarboxylate carrier (DIC, SLC25A10) (Homo sapiens, UniProt Q9UBX3, INS1GKP); experiment: nanoDSF thermal shift; assay type: binding; settings: 10 mM malate; 20 mM HEPES pH 7.0, 50 mM NaCl, cardiolipin/LMNG; apo Tm 54.1 °C
T3 construct: GKP added at positions 2-4; N-terminal His8 tag with factor Xa site, tag removed by on-column Xa cleavage; codon-optimized, expressed in Saccharomyces cerevisiae BJ2168 mitochondria; purified in LMNG/cardiolipin; 31,923 Da; monomer
T3 sequence (Q9UBX3 with tags, fused parts or gaps INS1GKP): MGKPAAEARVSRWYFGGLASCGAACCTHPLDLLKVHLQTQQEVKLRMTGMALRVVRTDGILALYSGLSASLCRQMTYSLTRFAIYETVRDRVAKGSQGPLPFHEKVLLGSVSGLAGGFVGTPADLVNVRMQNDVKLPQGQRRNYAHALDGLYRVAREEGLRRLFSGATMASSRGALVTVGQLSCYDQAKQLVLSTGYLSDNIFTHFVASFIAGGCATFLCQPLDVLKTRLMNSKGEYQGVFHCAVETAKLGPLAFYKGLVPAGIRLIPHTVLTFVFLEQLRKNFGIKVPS

[7] = molecular target: the molecule itself; experiment: SEC; 150 μL of purified carrier on Superdex 200 Increase 10/300 in buffer B (20 mM HEPES pH 7.0, 50 mM NaCl, 0.1 mg/mL tetraoleoyl cardiolipin/0.1% (w/v) lauryl maltose neopentyl glycol); sized against ferritin, aldolase, conalbumin and ovalbumin; total weight corrected for bound lipid/detergent (≈135 kDa)

## N[C@@H](CC(=O)O)C(=O)O [aspartate]
[1]
  apparent Km: chemical gradients for (C) OGC, (F) CIC, (I) DIC, and (L) AGC2
[2]
  thermal shift: 1.6 °C

## O=C(O)CC(O)(CC(=O)O)C(=O)O [citrate]
[3]
  apparent Km: Km plotted against Vmax for the various chemical gradients for (C) OGC, (F) CIC

## O=C(O)C[C@H](O)C(=O)O [malate]
[4]
  apparent Km: Km plotted against Vmax for the various chemical gradients for (C) OGC
[5]
  thermal shift: 5.6 °C
[6]
  thermal shift: 2.5 °C

B1: human mitochondrial aspartate/glutamate carrier 2 (natural protein, UniProt Q9UJS0 1-675, looked up)
chain: MAAAKVALTKRADPAELRTIFLKYASIEKNGEFFMSPNDFVTRYLNIFGESQPNPKTVELLSGVVDQTKDGLISFQEFVAFESVLCAPDALFMVAFQLFDKAGKGEVTFEDVKQVFGQTTIHQHIPFNWDSEFVQLHFGKERKRHLTYAEFTQFLLEIQLEHAKQAFVQRDNARTGRVTAIDFRDIMVTIRPHVLTPFVEECLVAAAGGTTSHQVSFSYFNGFNSLLNNMELIRKIYSTLAGTRKDVEVTKEEFVLAAQKFGQVTPMEVDILFQLADLYEPRGRMTLADIERIAPLEEGTLPFNLAEAQRQKASGDSARPVLLQVAESAYRFGLGSVAGAVGATAVYPIDLVKTRMQNQRSTGSFVGELMYKNSFDCFKKVLRYEGFFGLYRGLLPQLLGVAPEKAIKLTVNDFVRDKFMHKDGSVPLAAEILAGGCAGGSQVIFTNPLEIVKIRLQVAGEITTGPRVSALSVVRDLGFFGIYKGAKACFLRDIPFSAIYFPCYAHVKASFANEDGQVSPGSLLLAGAIAGMPAASLVTPADVIKTRLQVAARAGQTTYSGVIDCFRKILREEGPKALWKGAGARVFRSSPQFGVTLLTYELLQRWFYIDFGGVKPMGSEPVPKSRINLPAPNPDHVGGYKLAVATFAGIENKFGLYLPLFKPSVSTSKAIGGGP
notes: human aspartate/glutamate carrier 2 (AGC2, SLC25A13), UniProt Q9UJS0; TEV site between the His8 tag and the protein; protomers printed as 74 kDa each; also called AGC2; SLC25A13; not shown: His8, N-terminal, cleaved
[7]
  stoichiometry N: 2
